Results taken from patent US20250296959A1, “B7-H3 TARGETING PEPTIDES AND CONSTRUCTS THEREOF” (Mariana Oncology Inc., priority 2024, published 2025).
Starred links: 1 amine or outer side, 2 acyl side, 3 side chain; linkers in the order of their positions; H or OH if unused. Positions of bridges follow the written chain, without caps; N, C: chain ends. Non-standard residues stand in square brackets, D forms with d. Residues, ends and D or L forms follow the SMILES beside them. Groups on a side chain read outwards from the residue. *: point of attachment. Ala(piperidin-4-yl) = O=C([C@H](CC1CCN([*:3])CC1)N[*:1])[*:2]; Phe(3-CH2NH2) = O=C([C@H](Cc1cccc(CN[*:3])c1)N[*:1])[*:2]; DOTA = O=C(O)CN1CCN(CC(=O)O)CCN(CC(=O)*)CCN(CC(=O)O)CC1; Trp(4-Cl) = N[C@@H](Cc1c[nH]c2cccc(Cl)c12)C(=O)O; Trp(5-Cl) = N[C@@H](Cc1c[nH]c2ccc(Cl)cc12)C(=O)O; Phe(4-COOH) = N[C@@H](Cc1ccc(C(=O)O)cc1)C(=O)O; Trp(5-F) = N[C@@H](Cc1c[nH]c2ccc(F)cc12)C(=O)O; X15 = CC(=O)N1CCC(C[C@H](N[*:1])C(=O)[*:2])CC1; X1 = C[C@@H](c1ccccc1)[C@H](N[*:1])C(=O)[*:2]; γGlu = O=C(O)[C@H](CCC(=O)[*:2])N[*:1]; 1Nal = N[C@@H](Cc1cccc2ccccc12)C(=O)O; Ala(4-THP) = N[C@@H](CC1CCOCC1)C(=O)O; Val(3-OH) = CC(C)(O)[C@H](N)C(=O)O; hCha = N[C@@H](CCC1CCCCC1)C(=O)O; hPhe = N[C@@H](CCc1ccccc1)C(=O)O; 4Pal = N[C@@H](Cc1ccncc1)C(=O)O; Chg = N[C@H](C(=O)O)C1CCCCC1; PEG4 = NCCOCCOCCOCCOCCC(=O)O; Tle = CC(C)(C)[C@H](N)C(=O)O; hLeu = CC(C)CC[C@H](N)C(=O)O; Nle = CCCC[C@H](N)C(=O)O; Sar = CNCC(=O)O

Target: T1, human 4lg B7-H3 (Homo sapiens, UniProt Q5ZPR3)
T1 sequence (Q5ZPR3 29-534): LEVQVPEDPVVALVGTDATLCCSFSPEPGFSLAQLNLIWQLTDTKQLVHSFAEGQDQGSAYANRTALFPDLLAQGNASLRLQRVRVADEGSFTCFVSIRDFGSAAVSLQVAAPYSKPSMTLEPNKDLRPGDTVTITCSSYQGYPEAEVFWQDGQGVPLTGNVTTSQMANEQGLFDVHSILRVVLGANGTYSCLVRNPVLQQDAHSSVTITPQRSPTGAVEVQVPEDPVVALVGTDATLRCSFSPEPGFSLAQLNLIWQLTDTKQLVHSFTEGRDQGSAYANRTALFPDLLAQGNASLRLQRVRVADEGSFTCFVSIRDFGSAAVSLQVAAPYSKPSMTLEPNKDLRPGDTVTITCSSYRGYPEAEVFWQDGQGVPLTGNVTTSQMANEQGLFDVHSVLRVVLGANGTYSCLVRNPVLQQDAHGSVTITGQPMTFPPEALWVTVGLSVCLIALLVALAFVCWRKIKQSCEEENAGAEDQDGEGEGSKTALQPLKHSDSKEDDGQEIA
Assay: Affinity determination by surface plasmon resonance (SPR) to 4Ig B7-H3
Details: 4Ig B7-H3

[1] = SPR KD—25° C., 25° C. flow cell temperature
[2] = SPR KD—37° C., 37° C. flow cell temperature

| Compound | Kd [1] [nM] | Kd [2] [nM] |
| --- | --- | --- |
| CC(=O)N[C@@H](CCC(C)C)C(=O)N[C@@H](Cc1ccc(O)cc1)C(=O)N[C@H]1CSSC[C@@H](C(=O)N[C@@H](CCc2ccccc2)C(=O)N[C@@H](Cc2ccccc2)C(=O)N[C@H](C(=O)N[C@H](CCCCNC(=O)CN2CCN(CC(=O)O)CCN(CC(=O)O)CCN(CC(=O)O)CC2)C(=O)O)[C@@H](C)O)NC(=O)[C@H](Cc2ccc(O)cc2)NC(=O)[C@H](C(C)C)NC(=O)[C@H](CC(=O)O)NC(=O)[C@H](CC2CCOCC2)NC(=O)[C@H](CCCCN)NC(=O)CNC(=O)[C@H](C(C)(C)C)NC1=O [compound 359, Ac-hLeu-Y-C-Tbg-G-K-ThpA-D-V-Y-C-hF-F-Thr-dLys(DOTA)-COOH] (Ac-[hLeu]YC[Tle]GK[Ala(4-THP)]DVYC[hPhe]FT[dK](DOTA)-OH; disulfide 3-11) | 100 to 300 | – |
| CC(=O)N[C@@H](CCC1CCCCC1)C(=O)N[C@@H](Cc1ccc(O)cc1)C(=O)N[C@H]1CSSC[C@@H](C(=O)N[C@@H](Cc2c[nH]c3ccc(F)cc23)C(=O)N[C@@H](Cc2ccccc2)C(=O)N[C@H](C(=O)N[C@H](C)C(=O)O)C(C)(C)O)NC(=O)[C@H](Cc2ccc(O)cc2)NC(=O)[C@H](C(C)C)NC(=O)[C@H](CC(=O)O)NC(=O)[C@H](CC2CCOCC2)NC(=O)[C@H](CC2CCN(C(=O)CC[C@H](NC(=O)CN3CCN(CC(=O)O)CCN(CC(=O)O)CCN(CC(=O)O)CC3)C(=O)O)CC2)NC(=O)CNC(=O)[C@H](C(C)(C)C)NC1=O [compound 486, Ac-hCha-Y-C-Tbg-G-Pip(gE-DOTA)Ala-ThpA-D-V-Y-C-5FW-F-hydroxyVal-dAla-COOH] (Ac-[hCha]YC[Tle]G[Ala(piperidin-4-yl)]([γGlu-DOTA])[Ala(4-THP)]DVYC[Trp(5-F)]F[Val(3-OH)][dA]-OH; disulfide 3-11) | – | < 1 |
| CC(=O)N[C@@H](CCC(C)C)C(=O)N[C@@H](Cc1ccc(O)cc1)C(=O)N[C@H]1CSSC[C@@H](C(=O)N[C@@H](Cc2c[nH]c3ccc(F)cc23)C(=O)N[C@@H](Cc2ccccc2)C(=O)N[C@H](C(=O)N[C@H](CCCCNC(=O)CN2CCN(CC(=O)O)CCN(CC(=O)O)CCN(CC(=O)O)CC2)C(N)=O)[C@@H](C)O)NC(=O)[C@H](Cc2ccc(O)cc2)NC(=O)[C@H](C(C)C)NC(=O)[C@H](CC(=O)O)NC(=O)[C@H](Cc2ccc(O)cc2)NC(=O)[C@H](CCCCN)NC(=O)CN(C)C(=O)[C@H](C(C)(C)C)NC1=O [compound 78, Ac-hLeu-Y-C-Tbg-Sar-K-Y-D-V-Y-C-5FW-F-Thr-dLys(DOTA)-CONH2] (Ac-[hLeu]YC[Tle][Sar]KYDVYC[Trp(5-F)]FT[dK](DOTA)-NH2; disulfide 3-11) | 1 to 10 | – |
| CC(=O)N[C@@H](CCC(C)C)C(=O)N[C@@H](Cc1ccc(O)cc1)C(=O)N[C@H]1CSSC[C@@H](C(=O)N[C@@H](Cc2c[nH]c3cccc(Cl)c23)C(=O)N[C@@H](Cc2ccccc2)C(=O)N[C@H](C(=O)N[C@H](CCCCNC(=O)CN2CCN(CC(=O)O)CCN(CC(=O)O)CCN(CC(=O)O)CC2)C(=O)O)C(C)(C)O)NC(=O)[C@H](Cc2ccc(O)cc2)NC(=O)[C@H](C(C)C)NC(=O)[C@H](CC(=O)O)NC(=O)[C@H](CC2CCOCC2)NC(=O)[C@H](CC2CCNCC2)NC(=O)CNC(=O)[C@H](C(C)(C)C)NC1=O [compound 472, Ac-hLeu-Y-C-Tbg-G-PipAla-ThpA-D-V-Y-C-4ClW-F-hydroxyVal-dLys(DOTA)-COOH] (Ac-[hLeu]YC[Tle]G[Ala(piperidin-4-yl)][Ala(4-THP)]DVYC[Trp(4-Cl)]F[Val(3-OH)][dK](DOTA)-OH; disulfide 3-11) | – | 1 to 10 |
| CC(=O)N[C@@H](CCC(C)C)C(=O)N[C@@H](Cc1ccc(O)cc1)C(=O)N[C@H]1CSSC[C@@H](C(=O)N[C@@H](Cc2cccc3ccccc23)C(=O)N[C@@H](Cc2ccccc2)C(=O)N2CCC[C@H]2C(N)=O)NC(=O)[C@H](Cc2ccc(O)cc2)NC(=O)[C@H](C(C)C)NC(=O)[C@H](CC(=O)O)NC(=O)[C@H](Cc2cccc(CNC(=O)CC[C@H](NC(=O)CC[C@H](NC(=O)CN3CCN(CC(=O)O)CCN(CC(=O)O)CCN(CC(=O)O)CC3)C(=O)O)C(=O)O)c2)NC(=O)[C@H](CCCCN)NC(=O)CNC(=O)[C@H](C(C)(C)C)NC1=O [compound 255, Ac-hLeu-Y-C-Tbg-G-K-MAF(gE-gE-DOTA)-D-V-Y-C-1Nal-F-Pro-CONH2] (Ac-[hLeu]YC[Tle]GK[Phe(3-CH2NH2)]([γGlu-γGlu-DOTA])DVYC[1Nal]FP-NH2; disulfide 3-11) | 1 to 10 | – |
| CC[C@H](C)[C@@H]1NC(=O)[C@@H](NC(=O)[C@H](Cc2ccc(O)cc2)NC(=O)[C@H](CCC(C)C)NC(C)=O)CSSC[C@@H](C(=O)N[C@@H](Cc2c[nH]c3ccc(F)cc23)C(=O)N[C@@H](Cc2ccccc2)C(=O)N2CCC[C@H]2C(N)=O)NC(=O)[C@H](Cc2ccc(O)cc2)NC(=O)[C@H](C(C)C)NC(=O)[C@H](CC(=O)O)NC(=O)[C@H](Cc2ccncc2)NC(=O)[C@H](CCCCNC(=O)CN2CCN(CC(=O)O)CCN(CC(=O)O)CCN(CC(=O)O)CC2)NC(=O)CNC1=O [compound 260, Ac-hLeu-Y-C-Ile-G-Lys(DOTA)-4PyA-D-V-Y-C-5FW-F-Pro-CONH2] (Ac-[hLeu]YCIGK(DOTA)[4Pal]DVYC[Trp(5-F)]FP-NH2; disulfide 3-11) | 1 to 10 | – |
| CC(=O)N[C@@H](CCC(C)C)C(=O)N[C@@H](Cc1ccc(O)cc1)C(=O)N[C@H]1CSSC[C@@H](C(=O)N[C@@H](Cc2c[nH]c3ccccc23)C(=O)N[C@@H](Cc2ccccc2)C(=O)N[C@H](C(=O)N[C@H](CCCCNC(=O)CN2CCN(CC(=O)O)CCN(CC(=O)O)CCN(CC(=O)O)CC2)C(N)=O)[C@@H](C)O)NC(=O)[C@H](Cc2ccc(O)cc2)NC(=O)[C@H](C(C)C)NC(=O)[C@H](CC(=O)O)NC(=O)[C@H](Cc2ccc(C(=O)O)cc2)NC(=O)[C@H](CCCCN)NC(=O)CNC(=O)[C@H](C(C)(C)C)NC1=O [compound 139, Ac-hLeu-Y-C-Tbg-G-K-4COOHPhe-D-V-Y-C-W-F-Thr-dLys(DOTA)-CONH2] (Ac-[hLeu]YC[Tle]GK[Phe(4-COOH)]DVYCWFT[dK](DOTA)-NH2; disulfide 3-11) | < 1 | – |
| CC(=O)N[C@@H](CCC(C)C)C(=O)N[C@@H](Cc1ccc(O)cc1)C(=O)N[C@H]1CSSC[C@@H](C(=O)N[C@@H](Cc2c[nH]c3ccc(F)cc23)C(=O)N[C@H](C(=O)N[C@H](C(=O)N[C@H](C)C(=O)O)C(C)(C)O)[C@@H](C)c2ccccc2)NC(=O)[C@H](Cc2ccc(O)cc2)NC(=O)[C@H](C(C)C)NC(=O)[C@H](CC(=O)O)NC(=O)[C@H](CC2CCN(C(=O)CCOCCOCCOCCOCCNC(=O)CN3CCN(CC(=O)O)CCN(CC(=O)O)CCN(CC(=O)O)CC3)CC2)NC(=O)[C@H](CC2CCN(C(C)=O)CC2)NC(=O)CNC(=O)[C@H](C(C)(C)C)NC1=O [compound 513, Ac-hLeu-Y-C-Tbg-G-Pip(Ac)Ala-Pip(PEG4-DOTA)Ala-D-V-Y-C-5FW-[(2S, 3S)beta-Me-Phe]-hydroxyVal-dAla-COOH] (Ac-[hLeu]YC[Tle]G[X15][Ala(piperidin-4-yl)]([PEG4-DOTA])DVYC[Trp(5-F)][X1][Val(3-OH)][dA]-OH; disulfide 3-11) | – | < 1 |
| CC(=O)N[C@@H](CCC(C)C)C(=O)N[C@@H](Cc1ccc(O)cc1)C(=O)N[C@H]1CSSC[C@@H](C(=O)N[C@@H](Cc2c[nH]c3ccc(Cl)cc23)C(=O)N[C@@H](Cc2ccccc2)C(=O)N[C@H](C(=O)N[C@H](CCCCNC(=O)CN2CCN(CC(=O)O)CCN(CC(=O)O)CCN(CC(=O)O)CC2)C(N)=O)[C@@H](C)O)NC(=O)[C@H](Cc2ccc(O)cc2)NC(=O)[C@H](C(C)C)NC(=O)[C@H](CC(=O)O)NC(=O)[C@H](Cc2ccc(O)cc2)NC(=O)[C@H](CCCCN)NC(=O)CNC(=O)[C@H](C(C)(C)C)NC1=O [compound 235, Ac-hLeu-Y-C-Tbg-G-K-Y-D-V-Y-C-5ClTrp-F-Thr-dLys(DOTA)-CONH2] (Ac-[hLeu]YC[Tle]GKYDVYC[Trp(5-Cl)]FT[dK](DOTA)-NH2; disulfide 3-11) | 1 to 10 | – |
| CC(=O)N[C@@H](CCC(C)C)C(=O)N[C@@H](Cc1ccc(O)cc1)C(=O)N[C@H]1CSSC[C@@H](C(=O)N[C@@H](Cc2c[nH]c3ccccc23)C(=O)N[C@@H](Cc2ccccc2)C(=O)N[C@H](C(=O)N[C@H](CCCCNC(=O)CN2CCN(CC(=O)O)CCN(CC(=O)O)CCN(CC(=O)O)CC2)C(N)=O)[C@@H](C)O)NC(=O)[C@H](Cc2ccc(O)cc2)NC(=O)[C@H](C2CCCCC2)NC(=O)[C@H](CC(=O)O)NC(=O)[C@H](Cc2ccncc2)NC(=O)[C@H](CCCCN)NC(=O)CNC(=O)[C@H](C(C)(C)C)NC1=O [compound 152, Ac-hLeu-Y-C-Tbg-G-K-4PyA-D-ChG-Y-C-W-F-Thr-dLys(DOTA)-CONH2] (Ac-[hLeu]YC[Tle]GK[4Pal]D[Chg]YCWFT[dK](DOTA)-NH2; disulfide 3-11) | < 1 | – |
| CCCC[C@H](NC(C)=O)C(=O)N[C@@H](Cc1ccc(O)cc1)C(=O)N[C@H]1CSSC[C@@H](C(=O)N[C@@H](Cc2c[nH]c3ccc(F)cc23)C(=O)N[C@@H](Cc2ccccc2)C(=O)N[C@H](C(=O)N[C@H](CCCCNC(=O)CN2CCN(CC(=O)O)CCN(CC(=O)O)CCN(CC(=O)O)CC2)C(N)=O)[C@@H](C)O)NC(=O)[C@H](Cc2ccc(O)cc2)NC(=O)[C@H](C(C)C)NC(=O)[C@H](CC(=O)O)NC(=O)[C@H](Cc2ccc(O)cc2)NC(=O)[C@H](CCCCN)NC(=O)CNC(=O)[C@H](C(C)C)NC1=O [compound 133, Ac-Nle-Y-C-V-G-K-Y-D-V-Y-C-5FW-F-Thr-dLys(DOTA)-CONH2] (Ac-[Nle]YCVGKYDVYC[Trp(5-F)]FT[dK](DOTA)-NH2; disulfide 3-11) | 1 to 10 | – |
